The numbers were not newly measured in PMC4269829 (Cancer cell, 2014), which cites them from elsewhere.

For data set [1], the system named is ALK variant with L1196M mutation. Particulars: crizotinib-resistant L1196M mutation; ref Friboulet et al., 2014.
The test system of data set [2] is ALK variant with I1171T mutation. The conditions noted are these: crizotinib-resistant I1171T mutation; ref Friboulet et al., 2014.
Data set [3] concerns ALK with F1174 mutation. The conditions noted are these: ref Friboulet et al., 2014.

As for `Cc1cc(Nc2ncc(Cl)c(Nc3ccccc3S(=O)(=O)C(C)C)n2)c(OC(C)C)cc1C1CCNCC1` [ceritinib], the “inhibition of ALK variant (in words)” value in data set [1] and in data set [2] was “inhibit” in each case. For the same compound, the “overcoming resistance of ALK mutation (in words)” value in data set [3] is recorded as “not to overcome resistance”.
